Results published in paper doi:10.1101/2025.02.17.638454, “Synergistic RAS-MAPK and AKT Activation in MYC-Driven Tumors via Adjacent PVT1 Rearrangements” (bioRxiv, 2025).
No end group written: not given here.

Columns and labels:
Assay type in all cases: cell-based, human
[1] = test system: HALLMARK_MTORC1_SIGNALING; assay: GSEA MTORC1 signaling, SK-PN-DW; conditions: si.CircPVT1 vs si.Ctrl, n=3, Padj = 0.010
Description: (§1) RNAseq processing: Raw reads were mapped to the hg19 human reference genome using the STAR aligner (v.2.5.0a) 66. PCR-duplicated reads and low mapping quality reads (MQ score below 20) were removed using Picard tools and SAMtools, respectively. Aligned reads were counted using htseq-count (v.0.6.1p1) 69 and normalized according to size factors method from DESeq2 70. We used fold change ≥2 and FDR <0.05 as the determination of differentially expressed genes (DEG). Statistical analysis and plots were performed inside R environment version 3.1.0. upload files) […]
bioRxiv preprint doi: https://doi.org/10.1101/2025.02.17.638454; this version posted February 22, 2025. The copyright holder for this preprint (which was not certified by peer review) is the author/funder, who has granted bioRxiv a license to display the preprint in perpetuity. It is made available under a CC-BY 4.0 International license . […]
Supplementary Figure 11: Gene set enrichment analysis scores (GSEA) analysis of genes involved in MTORC 1 signaling in COLO320DM (A) and SK-PN-DW (B) treated with si.CircPVT 1. si.Ctrl was used as control. n=3, for each treatment condition .
(also on this page, place not known: SK-PN-DWB MTORC1 si.CircPVT1. condition. Enrichment Score Enrichment Score .CC-BY licenseavailable preprintthis https://doi.org/10.1101/2025.02.17.638454doi:) […]

HALLMARK_MYC_TARGETS = assay: GSEA MYC targets, COLO320DM; conditions: si.CircPVT1 vs si.Ctrl
Description: as §1, with “(DEG).” for “(DEG). Statistical analysis and plots were performed inside R environment version 3.1.0. upload files)”
Supplementary Figure 9: Gene set enrichment analysis scores (GSEA) analysis for MYC targets genes in COLODM320 (A,B) and SK-PN-DW (C,D) treated with si.CircPVT 1. si.Ctrl was used as control . n=3, for each treatment condition .
(also on this page, place not known: Enrichment Score Enrichment Score si.CircPVT1. control. condition. Enrichment Score Enrichment Score .CC-BY licenseavailable preprintthis https://doi.org/10.1101/2025.02.17.638454doi:) […]

MYC = assay: q-RT-PCR of MYC transcript in D458; conditions: D458, induction of HNB (-/+ Dox); n=3, unpaired t-test
Description: Total RNA was extracted with the TRIzol (Roche, Indianapolis, IN) as described by the manufacturer and complementary DNA synthesis, 1 μg of total RNA was reverse transcribed by using the GoScriptTM Reverse Transcription Mix, Random Primer Protocol (Promega, Madison, WI). Real-time PCR was run in triplicate using PowerUpTM SYBRTM Green Master Mix (Thermo Fisher Scientific), following the manufacturer’s instructions. Real-time PCR amplification monitoring was performed using the CFX96 Touch Real-Time PCR Detection System (Bio-Rad). Data were expressed as relative mRNA levels normalized to the GAPDH, served as endogenous normalization control expression levels in each sample, and are represented as mean ± standard error of the mean between 2 independent experiments unless otherwise indicated in the figure legend. The primer sequences are listed in the Supplementary Table.
The HNB ORF and eGFP (control) were cloned in an inducible lentivirus expression, TRE-gateway plasmid (pLIX_403, Addgene, #41395). Lentivirus was produced in HEK293T cells using the protocol described above. […] The protein lysates were collected and quantified using the previously described protocol. […] Bound proteins were detected with horseradish-peroxidase–conjugated secondary antibodies (Cell Signaling Technologies) and SuperSignal West Femto (Thermo Fisher Scientific). […]

Row | Substance | NES, HALLMARK_MTORC1_SIGNALING [1] | NES, HALLMARK_MYC_TARGETS_V1 (HALLMARK_MYC_TARGETS; n=3, Padj = 0.009) | NES, HALLMARK_MYC_TARGETS_V2 (HALLMARK_MYC_TARGETS; n=3, Padj = 0.017) | MYC mRNA level (MYC)
1 | si.CircPVT1: siRNA targeting the junction sequence of CircPVT1, 5’-UGGGCUUGAGGCCUGAUCUUU-3’ (other strand not given here) | -1.859 | -1.990 | -1.733 | –
2 | MKTQLGAVKGFLHV [HNB] | – | – | – | significantly reduced MYC expression at the mRNA as well as the protein levels
